Results from the METLIN SMRT retention time set (Domingo-Almenara et al. 2019).

Assay: gradient 5% acetonitrile 3 min, to 50% in 2 min, to 85% in 15 min, held 3 min, 100 µL/min
Details: column: Zorbax Extend-C18 2.1 x 50 mm; eluents: water / acetonitrile, 0.1% formic acid
Method in brief: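 The system's dead and dwell volumes were 40 μL and 900 μL, with a Zorbax Extend-C18 column (2.1 × 50 mm, 1.8 μm) run at 100 μL/min in water and acetonitrile containing 0.1% formic acid each. Pure standards were analyzed in mixtures of ~100 molecules by HPLC–quadrupole time-of-flight mass spectrometry in positive and negative ionization mode. Retention time was assigned from computationally picked, manually inspected adduct peaks.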

SMILES	RP-LC retention time [s]
CC(C)N(CCCNC(=O)Cn1cc2c(n1)CCCCC2)Cc1ccccc1	674
O=S(=O)(NC1CCCCC1n1cc(-c2ccccc2)nn1)c1ccccc1 (configuration not stated)	789
Cc1sc2ccn(CC(C)C)c(=O)c2c1C(=O)NC(C)c1ccc(F)cc1 (configuration not stated)	1030
CC1(C)C(=O)NCCN1C(=O)C1COc2ccccc2O1 (configuration not stated)	628
COc1cccc(-c2nc(-c3ccc4oc(C)nc4c3)no2)c1	1110
O=S(=O)(c1cc(-c2nnc(C3CCCC3)o2)co1)N1CCCCCC1	1050
Cc1ccc(-c2noc(-c3ccccc3S(=O)(=O)N3CC=C(c4ccccc4)CC3)n2)cc1	1350
Cc1cc(C(=O)Nc2c3c(nn2-c2ccccc2)CCC3)nn1C	733
Cc1ccn2cc(-c3ccc(NC(=O)c4cccc(Cl)c4)cc3)nc2n1	678
CC(C)Oc1cccnc1N(C)C1CCN(Cc2ccccc2)CC1	627
Cc1noc(-c2ccccc2OC2CCNC2)n1 (configuration not stated)	590
O=C(Nc1ccc(N2CCN(Cc3ccc(F)cc3)C2=O)nc1)c1cccs1	570
CCC(=O)N1CCN(c2nc(CC(C)C)c3c(c2C#N)CC(C)(C)OC3)CC1	1110
CC(=O)Nc1c(-c2ccccn2)nsc1C(=O)N1CCC(C)CC1	849
COc1ccc(-n2ncc3c(=O)n(Cc4nc(-c5ccc(C(C)(C)C)cc5)no4)cnc32)cc1	1270
CC(C)NC(=O)c1ccc(OCC2CCN(C(=O)c3cc(F)ccc3Cl)CC2)cc1	891
Cc1ccc(CNC(=O)C2CCCN(c3cc(=O)n(C)c(=O)n3C)C2)o1 (configuration not stated)	583
COc1ccc(-c2nnc(COc3ccc(NC(=O)Cc4cccs4)cc3)o2)cc1	900
CC(C)NC(=O)c1ccc2c(c1)CCCN2C(=O)c1ccc(F)cc1	784

SMILES	RP-LC retention time [s]
Cc1cnc(C(=O)N[C@@H]2CCC[C@@H]2C(=O)NCC2CCCCC2)cn1	742
CC(C)Oc1ccc(-c2noc(CCn3nc(-c4ccc(F)cc4)ccc3=O)n2)cc1	1100
CCc1nnc(NC(=O)CSc2nc3c(c(=O)n2CCOC)SC(C)C3)s1 (configuration not stated)	664
CCC(C)NC(=O)N1CCCN(C2=NS(=O)(=O)C(c3cccc(Cl)c3)=C2C)CC1 (configuration not stated)	837
Cn1cc(CCN2CCC(C(=O)NCc3ccc(F)cc3)CC2)c2cccnc21	595
CCc1cc(-c2csc(S(=O)(=O)N3CCN(Cc4ccc5c(c4)OCO5)CC3)c2)on1	753
CC(=O)Nc1ccc(-c2noc(C3CCCN(C(=O)CCc4c[nH]c5ccccc45)C3)n2)cc1 (configuration not stated)	798
CCCNC(=O)N1CCC(c2noc(-c3cccnc3)n2)C1 (configuration not stated)	642
O=C(NC1CCN(c2cc(-c3cccs3)[nH]n2)C1)c1cc(Cl)ccc1F (configuration not stated)	800
CC(C(=O)N1CCC(N2CCCCC2)CC1)C1CCN(S(=O)(=O)c2cccs2)CC1 (configuration not stated)	627
Cc1nn2c(CNC(=O)c3ccsc3)c(-c3ccccc3)nc2s1	782
Cc1ccc(S(=O)(=O)N2CC=C(c3cn(C)c4ncccc34)CC2)cc1	990
CCN1C(=O)c2c(C(=O)NCc3cccc(F)c3)ncn2CC1(C)C(=O)NC1CCCC1 (configuration not stated)	762
Cc1ccc(S(=O)(=O)N2CCC(c3nc(C(=O)N(C)C)c(C)o3)CC2)cc1C	878
COCc1cc(=O)n2c(n1)N(Cc1cccc(C#N)c1)CC2	669
O=C(Nc1cccnc1)C1CCCN(c2ncnc3c2nc2n3CCCCC2)C1 (configuration not stated)	603
CCC1CN(C(=O)N2CCC(C(=O)NCCN3CCN(CC)CC3)CC2)c2ccccc2O1 (configuration not stated)	617
O=C(NC1CCN(c2cc(-c3ccc(F)cc3)[nH]n2)C1)c1ccccc1 (configuration not stated)	705
